SMILES strings stand for the structures.

Assay [1] has as its system Mast/stem cell growth factor receptor Kit (Homo sapiens), P10721 [L576P]. Kind of assay: Inhibition of KIT L576P mutant (unknown origin) assessed as residual activity at 1000 nM by KINOMEscan analysis relative to control.
Assay [2] has as its target T1, Serine/threonine-protein kinase LATS1 (Homo sapiens) (UniProt O95835).
T1 sequence (whole entry): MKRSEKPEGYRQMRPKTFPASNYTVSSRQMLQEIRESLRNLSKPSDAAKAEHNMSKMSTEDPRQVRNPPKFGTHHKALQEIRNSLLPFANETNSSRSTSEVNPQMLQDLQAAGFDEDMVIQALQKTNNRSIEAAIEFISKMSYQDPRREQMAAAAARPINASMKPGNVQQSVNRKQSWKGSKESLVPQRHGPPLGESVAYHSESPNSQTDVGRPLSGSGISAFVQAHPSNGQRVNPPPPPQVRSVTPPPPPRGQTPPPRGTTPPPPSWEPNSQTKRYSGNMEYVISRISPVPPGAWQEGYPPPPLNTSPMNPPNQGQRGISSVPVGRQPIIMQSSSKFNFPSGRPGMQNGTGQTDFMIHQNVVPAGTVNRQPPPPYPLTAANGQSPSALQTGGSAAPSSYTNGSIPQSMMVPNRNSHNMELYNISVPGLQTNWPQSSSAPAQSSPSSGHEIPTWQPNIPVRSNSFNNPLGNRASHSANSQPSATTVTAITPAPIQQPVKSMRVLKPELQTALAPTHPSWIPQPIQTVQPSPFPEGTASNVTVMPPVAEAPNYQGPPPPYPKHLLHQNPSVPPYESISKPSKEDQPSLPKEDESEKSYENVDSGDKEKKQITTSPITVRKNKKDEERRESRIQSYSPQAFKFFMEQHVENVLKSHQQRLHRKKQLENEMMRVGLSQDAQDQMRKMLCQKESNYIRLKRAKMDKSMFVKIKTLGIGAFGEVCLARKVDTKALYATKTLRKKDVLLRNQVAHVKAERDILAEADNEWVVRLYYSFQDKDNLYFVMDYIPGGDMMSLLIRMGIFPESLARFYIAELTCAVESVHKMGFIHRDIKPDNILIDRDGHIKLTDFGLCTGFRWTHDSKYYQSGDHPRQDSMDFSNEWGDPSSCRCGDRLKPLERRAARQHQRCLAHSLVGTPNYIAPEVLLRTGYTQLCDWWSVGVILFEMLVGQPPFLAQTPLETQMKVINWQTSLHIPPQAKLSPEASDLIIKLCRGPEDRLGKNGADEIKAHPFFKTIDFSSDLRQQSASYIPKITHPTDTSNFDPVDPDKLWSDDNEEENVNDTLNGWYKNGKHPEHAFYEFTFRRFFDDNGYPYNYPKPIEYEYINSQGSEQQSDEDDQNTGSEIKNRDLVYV
Kind of assay: Inhibition of LATS1 (unknown origin) assessed as residual activity at 1000 nM by KINOMEscan analysis relative to control.

In assay [3] the test system is Proto-oncogene tyrosine-protein kinase receptor Ret (Homo sapiens), P07949 [V804L]. Kind of assay: Inhibition of RET V804L mutant (unknown origin) assessed as residual activity at 1000 nM by KINOMEscan analysis relative to control.
The target in assay [4] is T2, Serine/threonine-protein kinase TAO1 (Homo sapiens) (UniProt Q7L7X3).
T2 sequence (whole entry): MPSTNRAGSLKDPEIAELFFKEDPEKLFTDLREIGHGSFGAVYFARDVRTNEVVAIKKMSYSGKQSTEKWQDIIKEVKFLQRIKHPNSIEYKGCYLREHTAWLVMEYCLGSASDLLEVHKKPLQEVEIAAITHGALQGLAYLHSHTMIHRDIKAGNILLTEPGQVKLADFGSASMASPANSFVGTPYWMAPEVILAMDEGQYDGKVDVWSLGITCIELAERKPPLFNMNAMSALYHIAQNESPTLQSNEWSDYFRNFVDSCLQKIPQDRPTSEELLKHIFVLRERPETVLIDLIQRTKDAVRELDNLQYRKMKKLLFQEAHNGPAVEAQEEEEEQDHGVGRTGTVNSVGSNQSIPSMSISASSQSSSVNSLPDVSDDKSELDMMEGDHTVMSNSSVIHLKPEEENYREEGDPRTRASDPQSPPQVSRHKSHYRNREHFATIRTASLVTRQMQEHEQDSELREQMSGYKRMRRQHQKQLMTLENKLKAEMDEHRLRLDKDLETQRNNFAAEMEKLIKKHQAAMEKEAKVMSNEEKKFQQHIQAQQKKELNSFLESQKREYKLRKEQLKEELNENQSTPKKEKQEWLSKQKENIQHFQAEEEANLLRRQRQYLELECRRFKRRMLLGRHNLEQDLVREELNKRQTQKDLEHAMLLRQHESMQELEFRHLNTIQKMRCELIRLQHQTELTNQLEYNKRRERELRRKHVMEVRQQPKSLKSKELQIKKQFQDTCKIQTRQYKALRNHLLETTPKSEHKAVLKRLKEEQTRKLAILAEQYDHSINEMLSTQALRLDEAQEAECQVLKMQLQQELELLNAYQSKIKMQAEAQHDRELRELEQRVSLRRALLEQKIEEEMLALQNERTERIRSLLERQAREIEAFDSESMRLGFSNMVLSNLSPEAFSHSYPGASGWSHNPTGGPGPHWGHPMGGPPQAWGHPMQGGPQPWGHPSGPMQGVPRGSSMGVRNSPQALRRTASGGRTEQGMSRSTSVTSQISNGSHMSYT
Kind of assay: Inhibition of TAOK1 (unknown origin) assessed as residual activity at 1000 nM by KINOMEscan analysis relative to control.

The target in assay [5] is Serine/threonine-protein kinase SIK2 (Homo sapiens) (UniProt Q9H0K1). Kind of assay: Inhibition of SIK2 (unknown origin) assessed as residual activity at 1000 nM by KINOMEscan analysis relative to control.
Assay [6] deals with Tyrosine-protein kinase Fes/Fps (Homo sapiens) (UniProt P07332). Kind of assay: Inhibition of FES (unknown origin) assessed as residual activity at 1000 nM by KINOMEscan analysis relative to control.
The target in assay [7] is T3, Serine/threonine-protein kinase STK11 (Homo sapiens) (UniProt Q15831).
T3 sequence (whole entry): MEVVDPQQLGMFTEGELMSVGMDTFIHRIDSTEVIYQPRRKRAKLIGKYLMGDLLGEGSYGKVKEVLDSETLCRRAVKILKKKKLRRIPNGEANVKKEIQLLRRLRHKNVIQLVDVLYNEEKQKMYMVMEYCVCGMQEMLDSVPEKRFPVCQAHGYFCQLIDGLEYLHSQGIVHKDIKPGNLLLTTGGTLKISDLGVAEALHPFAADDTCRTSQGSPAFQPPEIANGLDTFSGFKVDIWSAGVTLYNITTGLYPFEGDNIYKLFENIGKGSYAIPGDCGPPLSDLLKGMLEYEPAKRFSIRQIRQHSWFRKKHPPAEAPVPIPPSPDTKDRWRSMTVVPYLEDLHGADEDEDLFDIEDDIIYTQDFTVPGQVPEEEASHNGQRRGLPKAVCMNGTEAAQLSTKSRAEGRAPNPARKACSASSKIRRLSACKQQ
Kind of assay: Inhibition of LKB1 (unknown origin) assessed as residual activity at 1000 nM by KINOMEscan analysis relative to control.

Mast/stem cell growth factor receptor Kit (Homo sapiens), P10721 [L576P], sequence (P10721 whole entry L576P): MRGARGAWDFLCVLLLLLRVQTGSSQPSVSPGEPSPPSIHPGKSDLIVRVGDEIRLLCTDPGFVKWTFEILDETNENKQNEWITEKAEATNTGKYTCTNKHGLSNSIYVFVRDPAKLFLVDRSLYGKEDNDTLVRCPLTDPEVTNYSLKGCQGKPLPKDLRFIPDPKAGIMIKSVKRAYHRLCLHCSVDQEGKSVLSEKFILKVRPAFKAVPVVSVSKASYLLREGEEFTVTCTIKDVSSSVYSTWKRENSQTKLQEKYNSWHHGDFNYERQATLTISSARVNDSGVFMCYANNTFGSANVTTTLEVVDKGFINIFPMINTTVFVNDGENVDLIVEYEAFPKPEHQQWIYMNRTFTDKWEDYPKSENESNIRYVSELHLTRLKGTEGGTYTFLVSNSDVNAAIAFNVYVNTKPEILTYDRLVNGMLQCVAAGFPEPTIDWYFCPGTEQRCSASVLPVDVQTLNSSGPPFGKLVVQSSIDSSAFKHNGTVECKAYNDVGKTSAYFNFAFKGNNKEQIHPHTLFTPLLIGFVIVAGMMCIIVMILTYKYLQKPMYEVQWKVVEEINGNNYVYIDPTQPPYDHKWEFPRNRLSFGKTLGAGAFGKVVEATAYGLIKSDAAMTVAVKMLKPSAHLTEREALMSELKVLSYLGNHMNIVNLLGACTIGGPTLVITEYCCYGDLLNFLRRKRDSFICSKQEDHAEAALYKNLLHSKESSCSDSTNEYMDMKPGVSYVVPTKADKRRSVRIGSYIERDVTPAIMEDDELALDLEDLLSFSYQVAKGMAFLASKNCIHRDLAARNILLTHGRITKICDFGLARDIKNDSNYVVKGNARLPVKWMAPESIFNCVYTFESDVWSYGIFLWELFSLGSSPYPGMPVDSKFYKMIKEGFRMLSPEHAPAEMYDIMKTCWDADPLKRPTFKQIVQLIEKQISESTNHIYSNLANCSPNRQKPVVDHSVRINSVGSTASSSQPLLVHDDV
Proto-oncogene tyrosine-protein kinase receptor Ret (Homo sapiens), P07949 [V804L], sequence (P07949 whole entry V804L): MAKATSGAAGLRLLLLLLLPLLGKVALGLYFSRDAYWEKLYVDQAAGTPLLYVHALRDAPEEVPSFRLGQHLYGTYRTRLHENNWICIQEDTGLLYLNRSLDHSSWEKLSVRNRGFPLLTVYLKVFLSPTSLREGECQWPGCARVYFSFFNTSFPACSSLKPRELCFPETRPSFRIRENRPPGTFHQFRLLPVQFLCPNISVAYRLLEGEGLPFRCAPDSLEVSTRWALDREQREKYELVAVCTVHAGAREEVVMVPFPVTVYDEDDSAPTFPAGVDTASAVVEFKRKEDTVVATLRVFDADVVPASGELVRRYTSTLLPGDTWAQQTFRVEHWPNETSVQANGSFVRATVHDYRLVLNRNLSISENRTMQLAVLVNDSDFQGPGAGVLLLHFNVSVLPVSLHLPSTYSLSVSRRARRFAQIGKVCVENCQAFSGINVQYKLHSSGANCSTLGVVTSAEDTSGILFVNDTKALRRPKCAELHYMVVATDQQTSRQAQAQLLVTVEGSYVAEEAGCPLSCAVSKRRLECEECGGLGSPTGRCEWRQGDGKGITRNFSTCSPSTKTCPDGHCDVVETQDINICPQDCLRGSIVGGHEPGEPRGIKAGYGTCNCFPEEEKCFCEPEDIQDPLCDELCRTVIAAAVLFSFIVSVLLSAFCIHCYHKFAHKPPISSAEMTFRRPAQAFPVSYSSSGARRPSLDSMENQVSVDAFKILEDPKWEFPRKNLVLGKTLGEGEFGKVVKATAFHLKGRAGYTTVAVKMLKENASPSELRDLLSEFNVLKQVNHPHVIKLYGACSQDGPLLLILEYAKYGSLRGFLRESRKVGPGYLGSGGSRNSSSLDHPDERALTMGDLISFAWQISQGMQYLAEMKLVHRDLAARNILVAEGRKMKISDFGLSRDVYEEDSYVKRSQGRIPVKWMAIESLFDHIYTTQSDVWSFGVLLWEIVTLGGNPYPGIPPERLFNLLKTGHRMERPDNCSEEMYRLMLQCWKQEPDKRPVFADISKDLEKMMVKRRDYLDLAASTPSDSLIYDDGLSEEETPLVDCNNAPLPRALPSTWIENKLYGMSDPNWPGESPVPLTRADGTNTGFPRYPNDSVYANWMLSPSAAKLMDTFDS
Serine/threonine-protein kinase SIK2 (Homo sapiens), sequence (Q9H0K1 whole entry, looked up): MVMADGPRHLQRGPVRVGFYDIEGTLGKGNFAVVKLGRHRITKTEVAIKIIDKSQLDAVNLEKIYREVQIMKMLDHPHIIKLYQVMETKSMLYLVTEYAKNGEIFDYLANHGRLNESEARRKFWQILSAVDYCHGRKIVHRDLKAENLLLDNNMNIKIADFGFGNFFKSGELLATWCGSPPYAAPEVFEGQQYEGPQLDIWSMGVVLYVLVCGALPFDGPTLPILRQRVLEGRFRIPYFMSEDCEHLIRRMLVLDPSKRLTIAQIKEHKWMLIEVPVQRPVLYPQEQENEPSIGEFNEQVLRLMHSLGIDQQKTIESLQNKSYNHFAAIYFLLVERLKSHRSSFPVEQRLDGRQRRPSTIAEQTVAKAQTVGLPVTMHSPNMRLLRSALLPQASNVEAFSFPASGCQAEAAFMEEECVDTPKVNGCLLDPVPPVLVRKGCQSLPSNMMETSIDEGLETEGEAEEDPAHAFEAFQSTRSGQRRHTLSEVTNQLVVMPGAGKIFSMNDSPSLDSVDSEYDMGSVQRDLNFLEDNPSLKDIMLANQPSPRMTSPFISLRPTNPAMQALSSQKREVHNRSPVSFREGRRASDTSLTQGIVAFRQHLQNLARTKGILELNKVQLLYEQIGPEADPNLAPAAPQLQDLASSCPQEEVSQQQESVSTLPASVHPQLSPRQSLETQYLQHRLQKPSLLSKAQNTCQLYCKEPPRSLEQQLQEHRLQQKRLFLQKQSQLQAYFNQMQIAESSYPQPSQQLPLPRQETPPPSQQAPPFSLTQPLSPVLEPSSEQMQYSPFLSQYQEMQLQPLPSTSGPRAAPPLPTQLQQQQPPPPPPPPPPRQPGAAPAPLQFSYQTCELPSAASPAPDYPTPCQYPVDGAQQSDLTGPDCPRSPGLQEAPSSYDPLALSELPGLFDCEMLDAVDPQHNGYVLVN
Tyrosine-protein kinase Fes/Fps (Homo sapiens), sequence (P07332 whole entry): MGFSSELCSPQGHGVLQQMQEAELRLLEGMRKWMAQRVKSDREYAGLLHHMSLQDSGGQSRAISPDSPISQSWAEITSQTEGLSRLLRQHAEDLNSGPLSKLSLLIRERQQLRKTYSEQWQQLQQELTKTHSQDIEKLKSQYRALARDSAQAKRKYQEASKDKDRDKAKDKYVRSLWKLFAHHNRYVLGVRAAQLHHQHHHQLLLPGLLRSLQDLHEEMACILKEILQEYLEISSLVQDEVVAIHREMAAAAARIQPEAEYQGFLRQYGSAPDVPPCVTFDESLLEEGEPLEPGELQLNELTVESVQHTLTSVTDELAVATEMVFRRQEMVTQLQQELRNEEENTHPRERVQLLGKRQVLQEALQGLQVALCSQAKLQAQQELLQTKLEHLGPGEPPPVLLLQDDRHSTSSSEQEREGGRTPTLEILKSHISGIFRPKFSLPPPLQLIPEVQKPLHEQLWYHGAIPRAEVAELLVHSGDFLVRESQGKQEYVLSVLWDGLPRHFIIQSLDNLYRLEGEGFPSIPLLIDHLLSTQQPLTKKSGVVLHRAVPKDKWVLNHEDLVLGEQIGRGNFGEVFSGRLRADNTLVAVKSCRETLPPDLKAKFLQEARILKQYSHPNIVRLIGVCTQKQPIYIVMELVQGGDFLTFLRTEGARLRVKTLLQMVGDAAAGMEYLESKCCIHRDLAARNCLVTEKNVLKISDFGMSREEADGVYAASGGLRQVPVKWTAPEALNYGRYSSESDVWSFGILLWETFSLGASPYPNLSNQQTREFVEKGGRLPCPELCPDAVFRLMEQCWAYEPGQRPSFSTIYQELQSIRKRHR

As to `COc1cc2nc(C)nc(N[C@H](C)c3cccc(-c4cn[nH]c4)c3)c2cc1OC`, the Activity in assay [1] turned out to be 85%; in assay [2] it was 98%; in assay [3], 65%; in assay [4], 100%; in assay [5] it was 89%; in assay [6] it was 45%. Besides, the Activity in assay [7] is 100%.
Turning to `COc1cc2ncnc(N[C@H](C)c3cccc4ccccc34)c2cc1OC`, the Activity in assay [1] turned out to be 95%; in assay [2], 100%; in assay [3] it was 100%; in assay [4], 89%; in assay [5], 100%; in assay [6], 99%. For the same compound, the Activity in assay [7] came to 100%.

The record behind these values is ChEMBL document CHEMBL5678818, “Discovery of potent SOS1 inhibitors that block RAS activation via disruption of the RAS-SOS1 interaction” (Proc Natl Acad Sci U S A, 2019).
